According to ChEMBL document CHEMBL5506009 (Eur J Med Chem, 2024):

Tested on: not listed separately
Assay: Inhibition of wild type influenza A virus H5N1 A/Anhui/1/2005 Neuraminidase using MUNANA as substrate
Conditions: not given

Row | Structure (SMILES) | IC50 [µM]
1 | Cc1cc([N+](=O)[O-])ccc1NC(=O)CSc1nnc(COc2ccc3ccccc3c2)o1 | 1.35
2 | O=C(CSc1nnc(-c2ccc3ncccc3c2)o1)NCCc1ccc2c(c1)OCO2 | 81
3 | O=C(CSc1nnc(COc2ccc3ccccc3c2)o1)NCCc1ccc2c(c1)OCO2 | 25.6
4 | COc1ccc(CCNC(=O)CSc2nnc(-c3ccc4ncccc4c3)o2)cc1OC | 2.65
5 | O=C(CSc1nnc(-c2ccc3ncccc3c2)o1)NCCc1cccc(F)c1 | 10.7
6 | COc1ccc(CCNC(=O)CSc2nnc(COc3ccc4ccccc4c3)o2)cc1OC | 2.82
7 | O=C(CSc1nnc(COc2ccc3ccccc3c2)o1)NCc1ccc(F)cc1 | 0.14
8 | COc1cc(NC(=O)CSc2nnc(COc3ccc4ccccc4c3)o2)cc(OC)c1OC | 43.8
9 | O=C(CSc1nnc(-c2ccc3ncccc3c2)o1)NCc1ccc(Cl)c(Cl)c1 | 0.47
10 | O=C(CSc1nnc(-c2ccc3ncccc3c2)o1)NCc1ccc(F)cc1 | 1.75
11 | O=C(CSc1nnc(COc2ccc3ccccc3c2)o1)Nc1ccc(C(F)(F)F)cn1 | 22.7
12 | O=C(CSc1nnc(COc2ccc3ccccc3c2)o1)NCCc1cccc(F)c1 | 1.16
13 | O=C(CSc1nnc(-c2ccc3ncccc3c2)o1)Nc1ccc(C(F)(F)F)cn1 | 1.96
14 | COc1cccc(CCNC(=O)CSc2nnc(COc3ccc4ccccc4c3)o2)c1 | 2.84
15 | COc1cc(NC(=O)CSc2nnc(-c3ccc4ncccc4c3)o2)cc(OC)c1OC | 10.4
16 | O=C(CSc1nnc(COc2ccc3ccccc3c2)o1)NCc1ccc(Cl)c(Cl)c1 | 0.86
17 | COc1cccc(CCNC(=O)CSc2nnc(-c3ccc4ncccc4c3)o2)c1 | 2.51
18 | CCC(CC)O[C@@H]1C=C(C(=O)O)C[C@H](N)[C@H]1NC(C)=O [OSELTAMIVIR CARBOXYLATE] | 0.31

Tested on: Influenza A virus
Assay: microbe, parasite or virus in culture
Conditions: H5N1

Row | Structure (SMILES) | EC50 [µM]
19 | O=C(CSc1nnc(COc2ccc3ccccc3c2)o1)NCc1ccc(F)cc1 | 3.7
20 | O=C(CSc1nnc(-c2ccc3ncccc3c2)o1)NCc1ccc(Cl)c(Cl)c1 | 0.11
21 | CCC(CC)O[C@@H]1C=C(C(=O)O)C[C@H](N)[C@H]1NC(C)=O [OSELTAMIVIR CARBOXYLATE] | 1.47
